Data reported in US20260185056A1, “TRIPLE TISSUE CULTURE FUSION” (IMBA - INSTITUT FÜR MOLEKULARE BIOTECHNOLOGIE GMBH, priority 2022, published 2026).
“Also recorded” adds a separate entry of the source.

Assays:
[1] = tested on: ventral midbrain organoids; test: SAG dose curve for floor plate induction in ventral midbrain organoids (qPCR FOXA2); format: cell-based, human; settings: day 4-11, with dual SMAD inhibition and Wnt activation; by day 20
Procedure: FIG. 2A-D: qPCR analysis of markers of ventral midbrain of the dose curving experiment to generate ventral midbrain organoids. Two separate dose curving experiments were performed, where first the correct dosage of sonic hedgehog activation was tested (FIG. 2A, floor plate marker FOXA2). Secondly, we performed qPCR to test for appropriate concentrations of posteriorization using Wnt activation. Dopaminergic neurons are born in the very ventral floor plate of the posterior midbrain, next to the midbrain-hindbrain boundary, thus the Forebrain and Midbrain marker OTX2 should still be expressed, whereas the hindbrain is OTX2 negative. We found a concentration of 0.8-1 μM sufficient to introduce midbrain (FIG. 2B), while the floor plate marker FOXA2 was still expressed (FIG. 2C). qPCR for the dopaminergic marker TH (Tyrosine hydroxylase, the rate-limiting enzyme for dopamine synthesis) confirmed this concentration of Wnt activation, with a sharp drop of TH expression starting at 1.2 μM CHIR (FIG. 2D).
All qPCR data are relative to the expression of TBP.
For ventral midbrain organoid preparation, cells were grown for 2-3 days after splitting in MG coated 6 well plates and dissociated using 600 μl Accutase. […] Cells were resuspended in 1 ml stem cell media +1:100 RI and counted. […]
Quantification was performed in excel by calculating ΔCt relative to TBP. […]

[2] = tested on: striatal organoids; test: SAG dose-response curve in presence of IWP2 for LGE patterning of striatal organoids; format: cell-based, human
Procedure: Panel C, D: Quantifications of GSX2^+ rosettes and PAX6^− rosettes, indicating LGE identity.
Panel E-F: Immunolabeling of CTIP2, an important early striatal marker, in two conditions with promising numbers of GSX2^+ rosettes, but low PAX6 expression.
For striatal organoid preparation, cells were grown for 2-3 days after splitting in MG coated 6 well plates and dissociated using 600 μl Accutase. 9000 cells were then transferred into 150 μl neural induction media containing 10 nM SAG and 2.5 μM IWP2 (SigmaAldrich, Cat. #10536) as well as 1:100 ROCK inhibitor. Media was exchanged on day 2 by replacing 100 μl media with 150 μl fresh NI media containing 10 nM SAG, 2.5 μM IWP2 and 1:100 ROCK inhibitor.
Striatal neurons are born majorly from the lateral ganglionic eminence (LGE), from where they migrate and form the developing striatum (Fjodorova, Noakes and Li, Neurogenesis, 2(1), 2015, Ornorati et al., Nat. Neurosci. 17, 1804-15, 2014). To pattern into LGE, we performed a dose curve experiment in a Wnt inhibitory context (IWP-2, which anteriorized and inhibits dorsal fate) similar to previous 2D differentiation approaches (Wu et al., Stem Cell Reports 11, 635-650, 2018). In brief, we activated sonic hedgehog signaling with the small molecule SAG at concentrations between 10 nM and 100 nM (FIG. 4B). We performed a SAG dose-response curve in the presence of the Wnt inhibitor IWP2 in an otherwise growth-factor free neural induction media.

[3] = lowest concentration of SAG (10 nM), with IWP2, day 28 organoids

Compound: CN[C@H]1CC[C@H](N(Cc2cccc(-c3ccncc3)c2)C(=O)c2sc3ccccc3c2Cl)CC1 [SAG, 3-Chloro-N-[trans-4-(methylamino)cyclo-hexyl]-N-[[3-(4-pyridinyl)phenyl]methyl]benzo[b]thiophene-2-carboxamide]
- concentration sufficient to introduce maximal FOXA2 expression levels [1]: 300 nM
- CTIP2 expression ([2]; 25 nM SAG treated organoids compared with SAG10 treated organoids): much lower; also recorded: significantly lower
- rosettes expressing the LGE marker GSX2 [2, 3]: high level
- rosettes expressing the more dorsal marker PAX6 [2, 3]: low number
